According to PMC12102759 (Protein Science : A Publication of the Protein Society, 2025):
Where two headings read alike, the source gives them in different places.

Test system: PABPC1 PABC
Type: binding, human
Settings: DMS-BM library, bait PABPC1 PABC, row aa = residue at this position; for DMS-derived PSSM value (averaged), position R12 / DMS-derived PSSM value, position R14: R = wild type; for DMS-derived PSSM value (averaged), position E8 / DMS-derived PSSM value, position E10 / DMS-derived PSSM value, position E8: E = wild type
[1] = prey ATXN2, TLNPNAKEFNPRSF(averaged) over the two overlapping peptides, F = wild type
[2] = prey ATXN2, peptide TLNPNAKEFNPRSFSQ, F = wild type
[3] = prey ATXN2, TLNPNAKEFNPRSF(averaged) over the two overlapping peptides, A = wild type
[4] = prey ATXN2, TLNPNAKEFNPRSF(averaged) over the two overlapping peptides, N = wild type
[5] = prey ATXN2, TLNPNAKEFNPRSF(averaged) over the two overlapping peptides, P = wild type
[6] = prey ATXN2, TLNPNAKEFNPRSF(averaged) over the two overlapping peptides
[7] = prey ATXN2, peptide KSTLNPNAKEFNPRSF, K = wild type
[8] = prey ATXN2, TLNPNAKEFNPRSF(averaged) over the two overlapping peptides, L = wild type
[9] = prey ATXN2, peptide TLNPNAKEFNPRSFSQ, N = wild type
[10] = prey ATXN2, peptide KSTLNPNAKEFNPRSF, N = wild type
[11] = prey ATXN2, peptide KSTLNPNAKEFNPRSF, F = wild type
[12] = prey ATXN2, peptide KSTLNPNAKEFNPRSF, P = wild type
[13] = prey ATXN2, peptide KSTLNPNAKEFNPRSF
[14] = prey ATXN2, TLNPNAKEFNPRSF(averaged) over the two overlapping peptides, K = wild type
[15] = prey ATXN2, peptide TLNPNAKEFNPRSFSQ, L = wild type
[16] = prey ATXN2, peptide KSTLNPNAKEFNPRSF, A = wild type
[17] = prey ATXN2, peptide KSTLNPNAKEFNPRSF, S = wild type
[18] = prey ATXN2, peptide TLNPNAKEFNPRSFSQ

TLNPNAKEFNPRSF(averaged) F14L (TLNPNAKEFNPRSL)
DMS-derived PSSM value (averaged), position F14 [1]: 0.193

TLNPNAKEFNPRSFSQ A6S (TLNPNSKEFNPRSFSQ)
DMS-derived PSSM value, position A6 (prey ATXN2, peptide TLNPNAKEFNPRSFSQ, A = wild type): 0.08307

TLNPNAKEFNPRSFSQ F9P (TLNPNAKEPNPRSFSQ)
DMS-derived PSSM value, position F9 [2]: 0

TLNPNAKEFNPRSF(averaged) A6D (TLNPNDKEFNPRSF)
DMS-derived PSSM value (averaged), position A6 [3]: 0

TLNPNAKEFNPRSF(averaged) N10I (TLNPNAKEFIPRSF)
DMS-derived PSSM value (averaged), position N10 [4]: 0.01803

TLNPNAKEFNPRSF(averaged) P11H (TLNPNAKEFNHRSF)
DMS-derived PSSM value (averaged), position P11 [5]: 0.07852

TLNPNAKEFNPRSF(averaged) R12N (TLNPNAKEFNPNSF)
DMS-derived PSSM value (averaged), position R12 [6]: 0.02727

KSTLNPNAKEFNPRSF K9E (KSTLNPNAEEFNPRSF)
DMS-derived PSSM value, position K9 [7]: 0.0298

TLNPNAKEFNPRSF(averaged) L2F (TFNPNAKEFNPRSF)
DMS-derived PSSM value (averaged), position L2 [8]: 0.05162

TLNPNAKEFNPRSFSQ N5P (TLNPPAKEFNPRSFSQ)
DMS-derived PSSM value, position N5 [9]: 8.238e-5

KSTLNPNAKEFNPRSF N12S (KSTLNPNAKEFSPRSF)
DMS-derived PSSM value, position N12 [10]: 0.008786

TLNPNAKEFNPRSF(averaged) E8W (TLNPNAKWFNPRSF)
DMS-derived PSSM value (averaged), position E8 [6]: 0

TLNPNAKEFNPRSF(averaged) N3A (TLAPNAKEFNPRSF)
DMS-derived PSSM value (averaged), position N3 [4]: 0

TLNPNAKEFNPRSFSQ N3P (TLPPNAKEFNPRSFSQ)
DMS-derived PSSM value, position N3 [9]: 0

KSTLNPNAKEFNPRSF N7R (KSTLNPRAKEFNPRSF)
DMS-derived PSSM value, position N7 [10]: 0.005056

TLNPNAKEFNPRSF(averaged) R12Y (TLNPNAKEFNPYSF)
DMS-derived PSSM value (averaged), position R12 [6]: 0.04827

TLNPNAKEFNPRSF(averaged) T1S (SLNPNAKEFNPRSF)
DMS-derived PSSM value (averaged), position T1 (prey ATXN2, TLNPNAKEFNPRSF(averaged) over the two overlapping peptides, T = wild type): 0.002379

TLNPNAKEFNPRSF(averaged) F14Q (TLNPNAKEFNPRSQ)
DMS-derived PSSM value (averaged), position F14 [1]: 0.06013

KSTLNPNAKEFNPRSF F16Q (KSTLNPNAKEFNPRSQ)
DMS-derived PSSM value, position F16 [11]: 0.002875

KSTLNPNAKEFNPRSF F16W (KSTLNPNAKEFNPRSW)
DMS-derived PSSM value, position F16 [11]: 0.01686

TLNPNAKEFNPRSF(averaged) E8V (TLNPNAKVFNPRSF)
DMS-derived PSSM value (averaged), position E8 [6]: 0.141

KSTLNPNAKEFNPRSF P13H (KSTLNPNAKEFNHRSF)
DMS-derived PSSM value, position P13 [12]: 0

TLNPNAKEFNPRSFSQ T1D (DLNPNAKEFNPRSFSQ)
DMS-derived PSSM value, position T1 (prey ATXN2, peptide TLNPNAKEFNPRSFSQ, T = wild type): 0.106

TLNPNAKEFNPRSFSQ K7Q (TLNPNAQEFNPRSFSQ)
DMS-derived PSSM value, position K7 (prey ATXN2, peptide TLNPNAKEFNPRSFSQ, K = wild type): 0.008943

KSTLNPNAKEFNPRSF E10M (KSTLNPNAKMFNPRSF)
DMS-derived PSSM value, position E10 [13]: 0.002857

TLNPNAKEFNPRSFSQ F14Q (TLNPNAKEFNPRSQSQ)
DMS-derived PSSM value, position F14 [2]: 0.1174

TLNPNAKEFNPRSF(averaged) K7N (TLNPNANEFNPRSF)
DMS-derived PSSM value (averaged), position K7 [14]: 0.09977

TLNPNAKEFNPRSF(averaged) S13M (TLNPNAKEFNPRMF)
DMS-derived PSSM value (averaged), position S13 (prey ATXN2, TLNPNAKEFNPRSF(averaged) over the two overlapping peptides, S = wild type): 0.01383

TLNPNAKEFNPRSFSQ L2I (TINPNAKEFNPRSFSQ)
DMS-derived PSSM value, position L2 [15]: 0.001607

KSTLNPNAKEFNPRSF
DMS-derived PSSM value, position A8 [16]: 0.5804
DMS-derived PSSM value, position E10 [13]: 0.1617
DMS-derived PSSM value, position F11 [11]: 0.393
DMS-derived PSSM value, position F16 [11]: 0.06015
DMS-derived PSSM value, position K9 [7]: 0.008078
DMS-derived PSSM value, position L4 (prey ATXN2, peptide KSTLNPNAKEFNPRSF, L = wild type): 0.6837
DMS-derived PSSM value, position N5 [10]: 0.9124
DMS-derived PSSM value, position N7 [10]: 0.02963
DMS-derived PSSM value, position N12 [10]: 0.02408
DMS-derived PSSM value, position P6 [12]: 0.1132
DMS-derived PSSM value, position P13 [12]: 0.007578
DMS-derived PSSM value, position R14 [13]: 0.01898
DMS-derived PSSM value, position S2 [17]: 0.03631
DMS-derived PSSM value, position S15 [17]: 0.05273
DMS-derived PSSM value, position T3 (prey ATXN2, peptide KSTLNPNAKEFNPRSF, T = wild type): 0.04565

TLNPNAKEFNPRSFSQ F14S (TLNPNAKEFNPRSSSQ)
DMS-derived PSSM value, position F14 [2]: 0.004424

TLNPNAKEFNPRSFSQ F14D (TLNPNAKEFNPRSDSQ)
DMS-derived PSSM value, position F14 [2]: 0.0175

KSTLNPNAKEFNPRSF R14P (KSTLNPNAKEFNPPSF)
DMS-derived PSSM value, position R14 [13]: 0.00803

TLNPNAKEFNPRSFSQ E8P (TLNPNAKPFNPRSFSQ)
DMS-derived PSSM value, position E8 [18]: 0.2652

TLNPNAKEFNPRSFSQ E8M (TLNPNAKMFNPRSFSQ)
DMS-derived PSSM value, position E8 [18]: 0.03925

KSTLNPNAKEFNPRSF R14T (KSTLNPNAKEFNPTSF)
DMS-derived PSSM value, position R14 [13]: 0.1913

TLNPNAKEFNPRSF(averaged) L2A (TANPNAKEFNPRSF)
DMS-derived PSSM value (averaged), position L2 [8]: 0

TLNPNAKEFNPRSFSQ P4L (TLNLNAKEFNPRSFSQ)
DMS-derived PSSM value, position P4 (prey ATXN2, peptide TLNPNAKEFNPRSFSQ, P = wild type): 0.05708

TLNPNAKEFNPRSF(averaged) F9M (TLNPNAKEMNPRSF)
DMS-derived PSSM value (averaged), position F9 [1]: 0

TLNPNAKEFNPRSF(averaged) L2R (TRNPNAKEFNPRSF)
DMS-derived PSSM value (averaged), position L2 [8]: 0

TLNPNAKEFNPRSF(averaged) N3D (TLDPNAKEFNPRSF)
DMS-derived PSSM value (averaged), position N3 [4]: 0.0826

TLNPNAKEFNPRSF(averaged) F9T (TLNPNAKETNPRSF)
DMS-derived PSSM value (averaged), position F9 [1]: 0.02947

TLNPNAKEFNPRSF(averaged) F14G (TLNPNAKEFNPRSG)
DMS-derived PSSM value (averaged), position F14 [1]: 0.002756

TLNPNAKEFNPRSF(averaged) A6I (TLNPNIKEFNPRSF)
DMS-derived PSSM value (averaged), position A6 [3]: 0.01774

TLNPNAKEFNPRSF(averaged) N3T (TLTPNAKEFNPRSF)
DMS-derived PSSM value (averaged), position N3 [4]: 0.009966

TLNPNAKEFNPRSFSQ S15I (TLNPNAKEFNPRSFIQ)
DMS-derived PSSM value, position S15 (prey ATXN2, peptide TLNPNAKEFNPRSFSQ, S = wild type): 0.0111

TLNPNAKEFNPRSF(averaged) F14R (TLNPNAKEFNPRSR)
DMS-derived PSSM value (averaged), position F14 [1]: 0.0001414

TLNPNAKEFNPRSFSQ F14V (TLNPNAKEFNPRSVSQ)
DMS-derived PSSM value, position F14 [2]: 0.06499

TLNPNAKEFNPRSF(averaged) L2S (TSNPNAKEFNPRSF)
DMS-derived PSSM value (averaged), position L2 [8]: 0

TLNPNAKEFNPRSF(averaged) K7M (TLNPNAMEFNPRSF)
DMS-derived PSSM value (averaged), position K7 [14]: 0.05548

KSTLNPNAKEFNPRSF S2Y (KYTLNPNAKEFNPRSF)
DMS-derived PSSM value, position S2 [17]: 0.2105

TLNPNAKEFNPRSFSQ L2W (TWNPNAKEFNPRSFSQ)
DMS-derived PSSM value, position L2 [15]: 0.1455

TLNPNAKEFNPRSF(averaged) P11M (TLNPNAKEFNMRSF)
DMS-derived PSSM value (averaged), position P11 [5]: 0.00553

TLNPNAKEFNPRSF(averaged) F9H (TLNPNAKEHNPRSF)
DMS-derived PSSM value (averaged), position F9 [1]: 0

KSTLNPNAKEFNPRSF R14M (KSTLNPNAKEFNPMSF)
DMS-derived PSSM value, position R14 [13]: 0.00585

KSTLNPNAKEFNPRSF F11V (KSTLNPNAKEVNPRSF)
DMS-derived PSSM value, position F11 [11]: 0

KSTLNPNAKEFNPRSF N5G (KSTLGPNAKEFNPRSF)
DMS-derived PSSM value, position N5 [10]: 0

KSTLNPNAKEFNPRSF S15P (KSTLNPNAKEFNPRPF)
DMS-derived PSSM value, position S15 [17]: 0.04178

KSTLNPNAKEFNPRSF A8P (KSTLNPNPKEFNPRSF)
DMS-derived PSSM value, position A8 [16]: 0
